# Tested on: calcium-activated chloride channel (CaCC)
# Test: YFP fluorescence plate reader iodide influx assay in HT-29 cells (ATP/carbachol)
# Assay type: cell-based, human
# Conditions: class A aminothiophenes, semi-quantitative
# Experimental: Screening was performed using a customized screening system (BECKMAN COULTER, Inc., Indianapolis, Ind.) consisting of the SAGIAN Core system integrated with SAMI software, and equipped with an ORCA arm for labware transport, a 96-channel head BIOMEK FX, CO2 incubator, plate washer, bar code reader, delidding station, and two FLUOstar OPTIMA fluorescence plate readers (BMG Labtechnologies, Durham, N.C.), each equipped with syringe pumps and custom excitation/emission filters (500/544 nm; CHROMA, Brattleboro, Vt.).
# HT-29 cells expressing YFP-H148Q/I152L were plated in 96-well plates at 70% confluence. Plates were incubated overnight at 37° C., 5% CO2 and then the growth medium was replaced with fresh growth medium. […] YFP fluorescence was measured 1 s before and for 30 s after addition of a PBS-iodide solution (PBS that has 100 mM chloride replaced by iodide) containing carbachol and ATP (100 μM each). Each 96-well plate contained ‘positive’ controls (DMSO vehicle without agonists or test compounds) and ‘negative’ controls (DMSO vehicle with agonists but without test compounds). In some experiments solutions included (individually or in combination): carbachol, ATP, or histamine (at 50, 100, 150 or 200 μM), calcimycin (10 μM), thapsigargin (2 μM) and CFTRinh-172 (20 μM).
# Iodide influx (d[I^−]/dt at t=0) was computed from fluorescence time course data by single exponential regression, as described (Ma et al., J. Clin. Invest. 110:1651-8 (2002)). Percentage inhibition was computed as: percentage inhibition=100×(Slopenegative control−Slopetest compound)/(Slopenegative control−Slopepositive control).
row,SMILES,% inhibition at 25 μM
1,"Cc1ccccc1C(=O)Nc1sc2c(c1C(=O)O)CCC(C(C)(C)C)C2 (centres unmarked) [CaCCinh-A02, 6-tert-butyl-2-(2-methylbenzamido)-4,5,6,7-tetrahydrobenzo[b]thiophene-3-carboxylic acid]",95%
2,"CC(C)(C)C1CCc2c(sc(NC(=O)c3cccc(Cl)c3)c2C(=O)O)C1 (centres unmarked) [CaCCinh-A03, 6-tert-butyl-2-(3-chlorobenzamido)-4,5,6,7-tetrahydrobenzo[b]thiophene-3-carboxylic acid]",50%
3,"CC(C)(C)C1CCc2c(sc(NC(=O)c3ccccc3)c2C(=O)O)C1 (centres unmarked) [CaCCinh-A04, 2-benzamido-6-tert-butyl-4,5,6,7-tetrahydrobenzo[b]thiophene-3-carboxylic acid]",85%
4,"CC(C)(C)C1CCc2c(sc(NC(=O)c3ccccc3Cl)c2C(=O)O)C1 (centres unmarked) [CaCCinh-A05, 6-tert-butyl-2-(2-chlorobenzamido)-4,5,6,7-tetrahydrobenzo[b]thiophene-3-carboxylic acid]",75%
5,"CCOC(=O)c1c(NC(=O)CCC(=O)O)sc2c1CCC(C(C)(C)C)C2 (centres unmarked) [CaCCinh-A06, 4-(6-tert-butyl-3-(ethoxycarbonyl)-4,5,6,7-tetrahydrobenzo[b]thiophen-2-ylamino)-4-oxobutanoic acid]",75%
6,"CCOC(=O)c1c(NC(=O)/C=C/C(=O)O)sc2c1CCC(C(C)(C)C)C2 (centres unmarked) [CaCCinh-A07, (E)-4-(6-tert-butyl-3-(ethoxycarbonyl)-4,5,6,7-tetrahydrobenzo[b]thiophen-2-ylamino)-4-oxobut-2-enoic acid]",98%
7,"CCOC(=O)c1c(NC(=O)C2CCCCC2C(=O)O)sc2c1CCC(C(C)(C)C)C2 (centres unmarked) [CaCCinh-A08, 2-(6-tert-butyl-3-(ethoxycarbonyl)-4,5,6,7-tetrahydrobenzo[b]thiophen-2-ylcarbamoyl)cyclohexanecarboxylic acid]",80%
8,"COC(=O)c1c(NC(=O)CCCC(=O)O)sc2c1CCC(C(C)(C)C)C2 (centres unmarked) [CaCCinh-A09, 5-(6-tert-butyl-3-(methoxycarbonyl)-4,5,6,7-tetrahydrobenzo[b]thiophen-2-ylamino)-5-oxopentanoic acid]",45%
9,"CCOC(=O)c1c(NC(=O)C2CCCCC2C(=O)O)sc2c1CCC(C(C)(C)CC)C2 (centres unmarked) [CaCCinh-A10, 2-(3-(ethoxycarbonyl)-6-tert-pentyl-4,5,6,7-tetrahydrobenzo[b]thiophen-2-ylcarbamoyl)cyclohexanecarboxylic acid]",75%
10,"COC(=O)c1c(NC(=O)CCC(=O)O)sc2c1CCC(C(C)(C)C)C2 (centres unmarked) [CaCCinh-A11, 4-(6-tert-butyl-3-(methoxycarbonyl)-4,5,6,7-tetrahydrobenzo[b]thiophen-2-ylamino)-4-oxobutanoic acid]",81%
11,"Cc1ccc(C(=O)Nc2sc3c(c2C(=O)O)CCCCC3)cc1 [CaCCinh-A12, 2-(4-methylbenzamido)-5,6,7,8-tetrahydro-4H-cyclohepta[b]thiophene-3-carboxylic acid]",15%
12,"O=C(Nc1sc2c(c1C(=O)O)CCCCC2)c1ccccc1 [CaCCinh-A13, 2-benzamido-5,6,7,8-tetrahydro-4H-cyclohepta[b]thiophene-3-carboxylic acid]",27%
13,"COc1cccc(C(=O)Nc2sc3c(c2C(=O)O)CCCCC3)c1 [CaCCinh-A15, 2-(3-methoxybenzamido)-5,6,7,8-tetrahydro-4H-cyclohepta[b]thiophene-3-carboxylic acid]",20%
14,"Cc1cccc(NC(=O)c2c(NC(=O)CCC(=O)O)sc3c2CCC(C(C)(C)C)C3)c1 (centres unmarked) [CaCCinh-A16, 4-(6-tert-butyl-3-(m-tolylcarbamoyl)-4,5,6,7-tetrahydrobenzo[b]thiophen-2-ylamino)-4-oxobutanoic acid]",42%
15,"Cc1cccc(C(=O)Nc2sc3c(c2C(=O)O)CCCC3)c1 [CaCCinh-A17, 2-(3-methylbenzamido)-4,5,6,7-tetrahydrobenzo[b]thiophene-3-carboxylic acid]",07%
16,"COc1ccc(NC(=O)c2c(NC(=O)CCC(=O)O)sc3c2CCC(C(C)(C)C)C3)cc1 (centres unmarked) [CaCCinh-A18, 4-(6-tert-butyl-3-(4-methoxyphenylcarbamoyl)-4,5,6,7-tetrahydrobenzo[b]thiophen-2-ylamino)-4-oxobutanoic acid]",35%

# Same assay, conditions: class B aminothiazoles, semi-quantitative
row,SMILES,% inhibition at 25 μM
1,"Cc1ccc(-c2nc(Nc3ccc(C)c(Cl)c3)sc2CC(=O)O)cc1 [CaCCinh-B02, 2-(2-(3-chloro-4-methylphenylamino)-4-p-tolylthiazol-5-yl)acetic acid]",40%
2,"Cc1ccc(-c2nc(Nc3cccc(Br)c3)sc2CC(=O)O)cc1 [CaCCinh-B03, 2-(2-(3-bromophenylamino)-4-p-tolylthiazol-5-yl)acetic acid]",60%
3,"Cc1ccc(-c2nc(Nc3ccc(Cl)cc3Cl)sc2CC(=O)O)cc1 [CaCCinh-B04, 2-(2-(2,4-dichlorophenylamino)-4-p-tolylthiazol-5-yl)acetic acid]",65%
4,"Cc1ccc(-c2nc(Nc3cccc(C(F)(F)F)c3)sc2CC(=O)O)cc1 [CaCCinh-B05, 2-(4-p-tolyl-2-(3-(trifluoromethyl)phenylamino)thiazol-5-yl)acetic acid]",60%
5,"CCCc1sc(Nc2ccc(C(=O)O)cc2)nc1-c1ccc(C)cc1C [CaCCinh-B06, 4-(4-(2,4-dimethylphenyl)-5-propylthiazol-2-ylamino)benzoic acid]",100%
6,"Cc1ccc(-c2nc(Nc3ccc(Br)cc3)sc2CC(=O)O)c(C)c1 [CaCCinh-B07, 2-(2-(4-bromophenylamino)-4-(2,4-dimethylphenyl)thiazol-5-yl)acetic acid]",70%
7,"Cc1ccc(-c2nc(Nc3cccc(C(F)(F)F)c3)sc2CC(=O)O)c(C)c1 [CaCCinh-B08, 2-(4-(2,4-dimethylphenyl)-2-(3-(trifluoromethyl)phenylamino)thiazol-5-yl)acetic acid]",75%
8,"CC(C)Cc1ccc(Nc2nc(-c3ccc(Oc4ccccc4)cc3)cs2)cc1 [CaCCinh-B09, N-(4-isobutylphenyl)-4-(4-phenoxyphenyl)thiazol-2-amine]",65%
9,"FC(F)(F)c1cccc(-c2csc(Nc3ccc(C4CCCCC4)cc3)n2)c1 [CaCCinh-B10, N-(4-cyclohexylphenyl)-4-(3-(trifluoromethyl)phenyl)thiazol-2-amine]",55%
10,"CCOc1ccc(Nc2nc(-c3ccc(C)cc3)c(CC(=O)O)s2)cc1 [CaCCinh-B11, 2-(2-(4-ethoxyphenylamino)-4-p-tolylthiazol-5-yl)acetic acid]",65%
11,"Cc1ccc(-c2nc(NC(=O)c3cccc(C)c3)sc2-c2ccccc2)cc1 [CaCCinh-B12, 3-methyl-N-(5-phenyl-4-p-tolylthiazol-2-yl)benzamide]",03%
12,"CCNc1nc(-c2ccc(C)cc2)cs1 [CaCCinh-B13, N-ethyl-4-p-tolylthiazol-2-amine]",20%
13,"COc1ccc(Nc2nc(-c3ccc(OC)cc3)c(CCC(=O)O)s2)cc1 [CaCCinh-B14, 3-(4-(4-methoxyphenyl)-2-(4-methoxyphenylamino)thiazol-5-yl)propanoic acid]",18%

# Source: US9789095B2, “Inhibitors of calcium-activated chloride channels” (The Regents of the University of California, priority 2007, dated 2017)
